Results reported in US11479551B2, “MTA-cooperative PRMT5 inhibitors” (Mirati Therapeutics, Inc., priority 2019, dated 2022).

Legend:
PRMT5/MEP50 complex [1] = target: T1, PRMT5/MEP50 complex (Homo sapiens (Human), UniProt O14744); experiment: PRMT5:MEP50 HotSpot Assay (full-length histone H2A substrate, plus and minus MTA); type: biochemical
Description: (§1) The PRMT5 inhibitory activity of compounds of the present invention was determined using either a PRMT5:MEP50 FlashPlate Assay (Reaction Biology Corporation) or a PRMT5:MEP50 HotSpot Assay (Reaction Biology Corporation).
The assay uses recombinant full-length histone H2A as the PRMT5 substrate. […] The reaction was stopped and transferred to filter paper for detection. The amount of tritiated H2A in each sample was determined using a scintillation counter.

PRMT5/MEP50 complex [2] = target: T1, PRMT5/MEP50 complex; experiment: PRMT5:MEP50 FlashPlate Assay (histone H4 peptide substrate, plus and minus MTA); type: biochemical
Description: as §1
1. PRMT5:MEP50 FlashPlate Assay

[3] = IC50 + 2 μM MTA, in the presence of 2 μM MTA
[4] = IC50 + 2 μM MTA (nM), in the presence of 2 μM MTA
[5] = in the absence of MTA, read-out: IC50

T1 sequence (O14744 2-637): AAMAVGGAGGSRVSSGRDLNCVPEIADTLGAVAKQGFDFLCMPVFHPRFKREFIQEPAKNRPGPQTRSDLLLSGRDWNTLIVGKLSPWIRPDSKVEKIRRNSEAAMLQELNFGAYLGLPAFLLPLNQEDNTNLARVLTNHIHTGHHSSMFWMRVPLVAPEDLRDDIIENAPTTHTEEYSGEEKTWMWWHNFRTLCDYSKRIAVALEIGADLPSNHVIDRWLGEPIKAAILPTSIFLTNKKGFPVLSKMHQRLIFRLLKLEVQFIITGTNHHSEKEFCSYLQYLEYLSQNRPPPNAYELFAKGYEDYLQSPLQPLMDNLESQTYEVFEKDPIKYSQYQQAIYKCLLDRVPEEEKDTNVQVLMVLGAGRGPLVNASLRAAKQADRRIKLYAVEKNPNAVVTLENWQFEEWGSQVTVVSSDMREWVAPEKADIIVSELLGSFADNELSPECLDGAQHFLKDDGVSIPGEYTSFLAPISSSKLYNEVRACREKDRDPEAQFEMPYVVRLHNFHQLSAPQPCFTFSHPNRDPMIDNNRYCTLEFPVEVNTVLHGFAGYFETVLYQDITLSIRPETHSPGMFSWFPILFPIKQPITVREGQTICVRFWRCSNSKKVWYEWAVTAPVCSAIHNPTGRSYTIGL
T1 sequence (Q9BQA1 2-342 partner): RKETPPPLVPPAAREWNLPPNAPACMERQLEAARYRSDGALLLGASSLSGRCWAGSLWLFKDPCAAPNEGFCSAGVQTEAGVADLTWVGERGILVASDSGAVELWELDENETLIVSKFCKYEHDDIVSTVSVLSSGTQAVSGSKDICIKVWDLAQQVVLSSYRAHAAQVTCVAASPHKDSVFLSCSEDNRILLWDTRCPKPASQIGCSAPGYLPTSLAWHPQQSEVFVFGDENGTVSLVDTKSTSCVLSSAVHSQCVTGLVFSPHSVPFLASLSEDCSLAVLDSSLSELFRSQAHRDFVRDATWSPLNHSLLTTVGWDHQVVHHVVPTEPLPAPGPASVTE

Row | Structure (SMILES) | IC50 (PRMT5/MEP50 complex [1]; [3]) [nM] | IC50 (PRMT5/MEP50 complex [2]; [4]) [nM] | IC50 (PRMT5/MEP50 complex [2]; [5]) [nM] | IC50 (PRMT5/MEP50 complex [1]; [5]) [nM]
1 | N#Cc1ccccc1-c1cncc(-c2ccc3c(=O)[nH]nc(CN)c3c2)c1 [Example 3-40, 2-(5-(4-(aminomethyl)-1-oxo-1,2-dihydrophthalazin-6-yl)pyridin-3-yl)benzonitrile] | 9690 | 6 | 193 | –
2 | NCc1n[nH]c(=O)c2ccc(-c3cncc(Oc4ccccc4)c3)cc12 [Example 3-50, 4-(aminomethyl)-6-(5-phenoxypyridin-3-yl)phthalazin-1(2H)-one] | 3780 | 10 | 277 | > 10000
3 | NCc1n[nH]c(=O)c2ccc(-c3cnc4[nH]ccc4c3)cc12 [Example 3-59, 4-(aminomethyl)-6-(1H-pyrrolo[2,3-b]pyridin-5-yl)phthalazin-1(2H)-one] | 1140 | 7.7 | 399 | > 10000
4 | COc1ccc2ncc(-c3ccc4c(=O)[nH]nc(CN)c4c3)n2c1 [Example 4-16, 4-(aminomethyl)-6-(6-methoxyimidazo[1,2-a]pyridin-3-yl)phthalazin-1(2H)-one] | 8850 | 9.4 | 602 | –
5 | Cn1ncc(-c2ccc3c(=O)[nH]nc(CN)c3c2)c1-c1ccccc1 [Example 4-32, 4-(aminomethyl)-6-(1-methyl-5-phenyl-1H-pyrazol-4-yl)phthalazin-1(2H)-one] | 2040 | 1.6 | 45 | > 10000
6 | CCOc1ccc2ncc(-c3ccc4c(=O)[nH]nc(CN)c4c3)n2c1 [Example 4-36, 4-(aminomethyl)-6-(6-ethoxyimidazo[1,2-a]pyridin-3-yl)phthalazin-1(2H)-one] | 2800 | 13 | 541 | –
7 | Cc1c[nH]c2ncc(-c3ccc4c(=O)[nH]nc(CN)c4c3)cc12 [Example 4-40, 4-(aminomethyl)-6-(3-methyl-1H-pyrrolo[2,3-b]pyridin-5-yl)phthalazin-1(2H)-one] | 3170 | 10 | 276 | –
8 | NCc1n[nH]c(=O)c2ccc(-c3cnc4[nH]cc(Cl)c4c3)cc12 [Example 4-44, 4-(aminomethyl)-6-(3-chloro-1H-pyrrolo[2,3-b]pyridin-5-yl)phthalazin-1(2H)-one] | 6830 | 5.4 | 691 | > 10000
9 | CCc1c[nH]c2ncc(-c3ccc4c(=O)[nH]nc(CN)c4c3)cc12 [Example 4-45, 4-(aminomethyl)-6-(3-ethyl-1H-pyrrolo[2,3-b]pyridin-5-yl)phthalazin-1(2H)-one] | 2790 | 16 | 291 | –
10 | NCc1n[nH]c(=O)c2ccc(-c3cncc(C(O)c4ccccc4)c3)cc12 (stereo not shown) [Example 4-51, 4-(aminomethyl)-6-(5-(hydroxy(phenyl)methyl)pyridin-3-yl)phthalazin-1(2H)-one] | 1510 | 5.8 | 530 | > 10000
11 | NCc1n[nH]c(=O)c2ccc(-c3cncc(Oc4ccccc4Cl)c3)cc12 [Example 4-71, 4-(aminomethyl)-6-(5-(2-chlorophenoxy)pyridin-3-yl)phthalazin-1(2H)-one] | 1050 | 4.9 | 116 | > 10000
12 | Cc1ccc(Oc2cncc(-c3ccc4c(=O)[nH]nc(CN)c4c3)c2)c(C)c1 [Example 4-73, 4-(aminomethyl)-6-(5-(2,4-dimethylphenoxy)pyridin-3-yl)phthalazin-1(2H)-one] | 933 | 0.6 | 24 | –
13 | NCc1n[nH]c(=O)c2ccc(-c3cnn4c3CN(c3ccccc3)CC4)cc12 [Example 4-83, 4-(aminomethyl)-6-(5-phenyl-4,5,6,7-tetrahydropyrazolo[1,5-a]pyrazin-3-yl)phthalazin-1(2H)-one] | 2710 | 14 | 344 | –
14 | COc1cccc(-c2c(-c3ccc4c(=O)[nH]nc(CN)c4c3)cnn2C)c1 [Example 4-93, 4-(aminomethyl)-6-(5-(3-methoxyphenyl)-1-methyl-1H-pyrazol-4-yl)phthalazin-1(2H)-one] | 845 | 3.3 | 85 | –
15 | Cn1ncc(-c2ccc3c(=O)[nH]nc(CN)c3c2)c1OCc1ccc(Cl)cc1 [Example 4-156, 4-(aminomethyl)-6-(5-((4-chlorobenzyl)oxy)-1-methyl-1H-pyrazol-4-yl)phthalazin-1(2H)-one] | 9130 | – | – | –
16 | COc1ccc(Oc2cncc(-c3ccc4c(=O)[nH]nc(CN)c4c3)c2)c(OC)c1 [Example 4-162, 4-(aminomethyl)-6-(5-(2,4-dimethoxyphenoxy)pyridin-3-yl)phthalazin-1(2H)-one] | 842 | – | – | –
17 | Cn1ncc(-c2ccc3c(=O)[nH]nc(CN)c3c2)c1-c1cc(Cl)cc(Cl)c1C#N [Example 4-165, 2-(4-(4-(aminomethyl)-1-oxo-1,2-dihydrophthalazin-6-yl)-1-methyl-1H-pyrazol-5-yl)-4,6-dichlorobenzonitrile] | 2410 | – | – | –

Row | Structure (SMILES) | IC50 (PRMT5/MEP50 complex [1]; [3]) [nM] | IC50 (PRMT5/MEP50 complex [2]; [4]) [nM] | IC50 (PRMT5/MEP50 complex [2]; [5]) [nM] | IC50 (PRMT5/MEP50 complex [1]; [5]) [nM]
18 | Cn1ncc(-c2ccc3c(=O)[nH]nc(CN)c3c2)c1-c1cc2cccnc2cc1C#N [Example 4-166, 6-(4-(4-(aminomethyl)-1-oxo-1,2-dihydrophthalazin-6-yl)-1-methyl-1H-pyrazol-5-yl)quinoline-7-carbonitrile] | 4510 | – | – | –
19 | Cn1ncc(-c2ccc3c(=O)[nH]nc(CN)c3c2)c1-c1cc2ncccc2cc1C#N [Example 4-167, 7-(4-(4-(aminomethyl)-1-oxo-1,2-dihydrophthalazin-6-yl)-1-methyl-1H-pyrazol-5-yl)quinoline-6-carbonitrile] | 6620 | – | – | –
20 | COc1cc(Cl)cc(-c2c(-c3ccc4c(=O)[nH]nc(CN)c4c3)cnn2C)c1C#N [Example 4-168, 2-(4-(4-(aminomethyl)-1-oxo-1,2-dihydrophthalazin-6-yl)-1-methyl-1H-pyrazol-5-yl)-4-chloro-6-methoxybenzonitrile] | 1370 | – | – | –
21 | COc1ccc(-c2c(-c3ccc4c(=O)[nH]nc(CN)c4c3)cnn2C)c(C#N)c1Cl [Example 4-170, 6-(4-(4-(aminomethyl)-1-oxo-1,2-dihydrophthalazin-6-yl)-1-methyl-1H-pyrazol-5-yl)-2-chloro-3-methoxybenzonitrile] | 728 | – | – | –
22 | CN(C)c1c(-c2ccc3c(=O)[nH]nc(CN)c3c2)cnn1C [Example 4-171, 4-(aminomethyl)-6-(5-(dimethylamino)-1-methyl-1H-pyrazol-4-yl)phthalazin-1(2H)-one] | 4440 | – | – | –
23 | CCOc1ccc(-c2c(-c3ccc4c(=O)[nH]nc(CN)c4c3)cnn2C)c(C#N)c1 [Example 4-173, 2-(4-(4-(aminomethyl)-1-oxo-1,2-dihydrophthalazin-6-yl)-1-methyl-1H-pyrazol-5-yl)-5-ethoxybenzonitrile] | 1600 | – | – | –
24 | Cn1ncc(-c2ccc3c(=O)[nH]nc(CN)c3c2)c1OCc1c(Cl)cccc1C#N [Example 4-174, 2-(((4-(4-(aminomethyl)-1-oxo-1,2-dihydrophthalazin-6-yl)-1-methyl-1H-pyrazol-5-yl)oxy)methyl)-3-chlorobenzonitrile] | > 10000 | – | – | –
25 | Cn1ncc(-c2ccc3c(=O)[nH]nc(CN)c3c2)c1-c1cccc(OC2CC2)c1C#N [Example 4-175, 2-(4-(4-(aminomethyl)-1-oxo-1,2-dihydrophthalazin-6-yl)-1-methyl-1H-pyrazol-5-yl)-6-cyclopropoxybenzonitrile] | 1120 | – | – | –
26 | CC(C)Oc1cccc(-c2c(-c3ccc4c(=O)[nH]nc(CN)c4c3)cnn2C)c1C#N [Example 4-176, 2-(4-(4-(aminomethyl)-1-oxo-1,2-dihydrophthalazin-6-yl)-1-methyl-1H-pyrazol-5-yl)-6-isopropoxybenzonitrile] | 8710 | – | – | –
27 | Cn1ncc(-c2ccc3c(=O)[nH]nc(CN)c3c2)c1-c1cccc(OC2CCC2)c1C#N [Example 4-177, 2-(4-(4-(aminomethyl)-1-oxo-1,2-dihydrophthalazin-6-yl)-1-methyl-1H-pyrazol-5-yl)-6-cyclobutoxybenzonitrile] | 5970 | – | – | –
28 | CCCOc1cccc(-c2c(-c3ccc4c(=O)[nH]nc(CN)c4c3)cnn2C)c1C#N [Example 4-178, 2-(4-(4-(aminomethyl)-1-oxo-1,2-dihydrophthalazin-6-yl)-1-methyl-1H-pyrazol-5-yl)-6-propoxybenzonitrile] | 4880 | – | – | –
29 | COc1ccc(-c2c(-c3ccc4c(=O)[nH]nc(CN)c4c3)cnn2C)c(C#N)c1C [Example 4-179, 6-(4-(4-(aminomethyl)-1-oxo-1,2-dihydrophthalazin-6-yl)-1-methyl-1H-pyrazol-5-yl)-3-methoxy-2-methylbenzonitrile] | 1240 | – | – | –
30 | N#Cc1ccccc1-c1c(-c2ccc3c(=O)[nH]nc(CN)c3c2)cnn1CCO [Example 4-193, 2-(4-(4-(aminomethyl)-1-oxo-1,2-dihydrophthalazin-6-yl)-1-(2-hydroxyethyl)-1H-pyrazol-5-yl)benzonitrile] | > 10000 | – | – | –
31 | NCc1n[nH]c(=O)c2ccc(-c3cncc(C4CCCOC4)c3)cc12 (stereo not shown) [Example 4-195, 4-(aminomethyl)-6-(5-(tetrahydro-2H-pyran-3-yl)pyridin-3-yl)phthalazin-1(2H)-one] | > 10000 | – | – | –
32 | N#Cc1ccc(C#N)c(-c2cncc(-c3ccc4c(=O)[nH]nc(CN)c4c3)c2)c1 [Example 8-9, 2-(5-(4-(aminomethyl)-1-oxo-1,2-dihydrophthalazin-6-yl)pyridin-3-yl)terephthalonitrile] | > 10000 | – | – | –
33 | NCc1n[nH]c(=O)c2ccc(-c3cncc(C4CCCCC4)c3)cc12 [Example 14-1, 4-(aminomethyl)-6-(5-cyclohexyl-3-pyridyl)-2H-phthalazin-1-one] | > 10000 | – | – | –
